Columns and labels:
BXPC-3 = experiment: Antiproliferative activity against human BXPC-3 cells assessed as reduction in cell viability measured for 72 hrs by CCK-8 assay; type: functional, cell-based; conditions: BXPC-3, 72 h
[1] = target: Lysine-specific histone demethylase 1A (Homo sapiens) (UniProt O60341); experiment: Inhibition of LSD1 (unknown origin) at 10 uM relative to control
MIA PaCa-2 = experiment: Antiproliferative activity against human MIA PaCa-2 cells assessed as reduction in cell viability incubated for 24 hrs by CCK-8 assay; type: functional, cell-based; conditions: MIA PaCa-2, 24 h
Spermine oxidase = Spermine oxidase (Homo sapiens, UniProt Q9NWM0); experiment: Inhibition of SMOX (unknown origin) using spermine as substrate preincubated for 1 hr followed by substrate addition and measured after 20 mins by luminometer analysis
Spermine oxidase, sequence (Q9NWM0 whole entry): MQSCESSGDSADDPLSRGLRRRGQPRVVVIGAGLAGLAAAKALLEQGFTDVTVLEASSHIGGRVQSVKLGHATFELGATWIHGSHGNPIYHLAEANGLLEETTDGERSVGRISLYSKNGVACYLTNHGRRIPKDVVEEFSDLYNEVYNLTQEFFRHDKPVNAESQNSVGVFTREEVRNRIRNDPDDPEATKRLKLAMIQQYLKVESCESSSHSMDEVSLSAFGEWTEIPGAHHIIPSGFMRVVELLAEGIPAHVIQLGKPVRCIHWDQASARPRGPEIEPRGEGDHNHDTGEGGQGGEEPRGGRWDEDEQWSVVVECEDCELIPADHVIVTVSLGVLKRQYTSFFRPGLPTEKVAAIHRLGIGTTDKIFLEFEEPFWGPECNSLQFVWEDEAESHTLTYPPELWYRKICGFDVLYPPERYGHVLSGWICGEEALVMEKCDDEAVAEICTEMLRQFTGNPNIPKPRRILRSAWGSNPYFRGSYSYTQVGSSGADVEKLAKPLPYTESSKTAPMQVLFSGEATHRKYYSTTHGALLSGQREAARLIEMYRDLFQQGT

MCF7 = experiment: Antiproliferative activity against human MCF7 cells assessed as reduction in cell viability by MTT assay; type: functional, cell-based
DU-145 = experiment: Antiproliferative activity against human DU-145 cells assessed as cell growth inhibition; type: functional, cell-based
PC-3 = experiment: Growth inhibition of human PC-3 cells assessed as reduction in cell viability by SRB assay; type: functional; conditions: time 48 hrs
[2] = target: T1, Histone-lysine N-methyltransferase EHMT2 (Homo sapiens, UniProt Q96KQ7); experiment: Inhibition of human G9a expressed in HEK293 cells; type: cell-based
T1 sequence (Q96KQ7 whole entry): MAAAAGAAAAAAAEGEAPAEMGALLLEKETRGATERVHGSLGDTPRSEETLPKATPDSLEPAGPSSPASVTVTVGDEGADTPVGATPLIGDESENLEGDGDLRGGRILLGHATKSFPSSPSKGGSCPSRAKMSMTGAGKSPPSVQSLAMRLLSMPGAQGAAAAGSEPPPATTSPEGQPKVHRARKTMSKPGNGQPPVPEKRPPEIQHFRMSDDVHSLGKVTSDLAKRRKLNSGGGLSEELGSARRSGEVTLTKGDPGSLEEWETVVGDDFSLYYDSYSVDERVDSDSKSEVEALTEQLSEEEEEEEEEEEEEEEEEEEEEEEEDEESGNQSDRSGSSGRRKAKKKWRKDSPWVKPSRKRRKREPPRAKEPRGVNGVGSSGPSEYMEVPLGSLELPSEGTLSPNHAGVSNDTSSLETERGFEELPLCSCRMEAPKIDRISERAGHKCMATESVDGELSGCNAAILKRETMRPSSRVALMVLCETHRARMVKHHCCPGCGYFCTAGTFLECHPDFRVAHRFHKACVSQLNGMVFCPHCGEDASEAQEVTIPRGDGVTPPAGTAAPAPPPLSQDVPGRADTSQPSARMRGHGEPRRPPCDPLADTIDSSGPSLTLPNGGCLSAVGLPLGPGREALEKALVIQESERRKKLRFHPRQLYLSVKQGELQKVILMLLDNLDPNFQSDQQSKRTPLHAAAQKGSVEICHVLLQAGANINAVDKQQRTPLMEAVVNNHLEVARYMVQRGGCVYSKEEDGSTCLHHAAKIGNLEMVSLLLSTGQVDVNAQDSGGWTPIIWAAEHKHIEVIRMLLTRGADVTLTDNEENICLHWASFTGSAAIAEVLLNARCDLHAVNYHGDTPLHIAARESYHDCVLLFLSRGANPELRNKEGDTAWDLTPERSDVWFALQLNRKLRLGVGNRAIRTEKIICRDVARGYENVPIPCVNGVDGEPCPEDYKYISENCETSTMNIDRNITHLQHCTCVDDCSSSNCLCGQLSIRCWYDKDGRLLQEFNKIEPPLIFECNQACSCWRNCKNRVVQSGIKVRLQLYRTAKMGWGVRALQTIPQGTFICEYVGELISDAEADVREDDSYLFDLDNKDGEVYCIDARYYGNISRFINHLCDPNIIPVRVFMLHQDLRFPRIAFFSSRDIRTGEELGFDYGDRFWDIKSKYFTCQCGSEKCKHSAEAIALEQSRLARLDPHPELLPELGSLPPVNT

NCI-H1975 = experiment: Antiproliferative activity against human NCI-H1975 cells assessed as reduction in cell viability incubated for 48 hrs by MTT assay; conditions: NCI-H1975, 48 h
THP-1 = experiment: Antiproliferative activity against human THP-1 cells incubated for 24 hrs by trypan blue reagent based analysis; type: functional, cell-based; conditions: THP-1, 24 h
K562 = experiment: Antiproliferative activity against human K562 assessed as reduction in cell growth incubated for 48 hrs by MTT assay; type: functional, cell-based; conditions: K562, 48 h
MOLM-13 = experiment: Antiproliferative activity against human MOLM-13 assessed as reduction in cell growth incubated for 48 hrs by MTT assay; type: functional, cell-based; conditions: MOLM-13, 48 h
Jurkat = experiment: Antiproliferative activity against human Jurkat cells assessed as reduction in cell viability incubated for 48 hrs by cell titer-glo assay; type: functional, cell-based
MGC-803 = experiment: cells; conditions: Homo sapiens, MGC-803, 72 h
[3] = Inhibition of DCN1 (unknown origin) by TR-FRET analysis; design: species or system Homo sapiens
BGC-823 = experiment: cells; conditions: Homo sapiens, BGC-823, 72 h
SGC-7901 = experiment: cells; conditions: Homo sapiens, SGC-7901, 72 h

Which IC50 (BXPC-3) does the source give for `Nc1n[nH]c(NCc2c(Cl)cccc2Oc2ccc(-c3ccccc3)cc2)n1` here?
Its IC50 is over 100 µM.

And the inhibition [1]?
Its inhibition is 52.1%.

What about the IC50 (MIA PaCa-2) of the same compound?
Its IC50 is 61.5 µM.

What about the IC50 (Spermine oxidase) of the same compound?
Its IC50 is 25.7 µM.

For `CC/C(=C(/c1ccc(OCCN(C)C)cc1)c1ccc(OC(=O)N(C)CCN(C)C2CC2c2ccccc2)cc1)c1ccccc1` (stereo not drawn), which IC50 (MCF7) is on record?
Its IC50 is 28.7 µM.

Which results are given for `C#CCN(C)Cc1cccc(NC(=O)CCCCCCC(=O)NO)c1`?
IC50 (DU-145): 0.42 µM; GI50 (PC-3): 0.33 µM

Which IC50 [2] does the source give for `COc1cc2nc(NCCCN(C)C)nc(NC3CCN(Cc4ccccc4)CC3)c2cc1OC` here?
Its IC50 is 0.778 µM.

For `CN(C)CCCNc1nc(NC2CCN(Cc3ccccc3)CC2)c2ccccc2n1`, which IC50 [2] is on record?
Its IC50 is 41.3 µM.

With `O=C(NO)c1ccc(CN2CCC(CN[C@@H]3C[C@H]3c3ccccc3)CC2)cc1` as the compound, how does the IC50 (THP-1) read?
Its IC50 is 16.3 µM.

What about the IC50 (K562) of the same compound?
The IC50 was 16.6 µM.

What about the IC50 (MOLM-13) of the same compound?
The IC50 was 1.3 µM.

And the IC50 (Jurkat)?
The IC50 was 15.5 µM.

Which results are given for `Cc1cc(Sc2nnnn2CCN(C)C)n2nc(SCc3ccc(Cl)cc3)nc2n1`?
IC50 (MGC-803): 0.53 µM; IC50 [3]: 0.011 µM; IC50 (BGC-823): 1 µM; IC50 (SGC-7901): 0.85 µM

Source: ChEMBL document CHEMBL5335824, “Research progress of LSD1-based dual-target agents for cancer therapy” (Bioorg Med Chem, 2024)
